Laboratory results from patent US20250170140A1, “PHARMACEUTICAL COMPOSITION FOR PREVENTING OR TREATING CANCER COMPRISING CARNITINE ACYLCARNITINE CARRIER INHIBITOR AND PEROXISOMAL BETA OXIDATION INHIBITOR” (priority 2021, published 2025).
Read-outs that look alike come from different tables or passages of the source.

Key:
Assay type in all cases: cell-based
[1] = test system: U251 cells; assay: SRB assay, glioblastoma cell line U251
Experimental: (§1) As a comparison, omeprazole (KN510) and trimetazidine (KN713), a 3-ketoacyl CoA thiolase inhibitor, were co-treated. […] After cell inoculation, 96-well cell culture plates were incubated for 24 hours before the addition of experimental drugs. […] The cells were then incubated in a CO2 incubator for 48 hours, after which the assay was terminated by the addition of cold TCA. Cells were fixed in situ by gently adding 50 μl of cold 50% (w/v) TCA (final concentration: 10% TCA) and incubated at 4° C. for 60 min. The supernatant was discarded, and the plate was washed five times with distilled water and air dried. Sulforhodamine B (SRB) solution (100 μl) of 0.4% (w/v) in 1% acetic acid was added to each well, and the plate was left at room temperature for 10 min. After staining, unbound dye was removed by washing five times with 1% acetic acid, and the plate was air-dried. The bound dye was then solubilized with 10 mM trizma base, and the absorbance was recorded at 515 nm using an automated plate reader. […] The predicted synergistic activity of a combination of the present invention can be calculated using the Colby Equation in Equation 1 (S.R. Colby, Weeds, 1967, pp. 15, 20-22): In the present invention, the actual measure of anti-cancer activity of the combination treatment was the inhibition rate of cancer cell growth (%), and the predicted value (E) of the combination treatment was measured by substituting it into the above Colby Equation.

[2] = test system: K562 cells; assay: SRB assay, leukemia cell line K562
Experimental: as §1

[3] = test system: SF295 cells; assay: SRB assay, glioblastoma cell line SF295
Experimental: as §1

[4] = test system: Hep-3B cells; assay: SRB assay, liver cancer cell line Hep-3B
Experimental: as §1

[5] = test system: OVCAR-8 cells; assay: SRB assay, ovarian cancer cells OVCAR-8
Experimental: as §1

[6] = test system: DLD-1 cells; assay: SRB assay, colon cancer cell line DLD-1
Experimental: as §1

[7] = test system: MIA PaCa-2; assay: SRB assay, cancer cell growth, pancreatic cancer cell line MIA PaCa-2
Experimental: as §1, with “20-22): α and β are the measured anti-cancer activity of each compound alone, and E is the predicted anti-cancer activity of a mixture of α and β as a prediction.” for “20-22):”

[8] = test system: H1975 cells; assay: SRB assay, lung cancer cells H1975
Experimental: as §1

[9] = test system: SK-HEP-1 cells; assay: SRB assay, liver cancer cell line SK-HEP-1
Experimental: as §1

[10] = test system: UACC-62 cells; assay: SRB assay, melanoma cell line UACC-62
Experimental: as §1

[11] = test system: PC-3 cells; assay: SRB assay, prostate cancer cells PC-3
Experimental: as §1

[12] = test system: MDA-MB-231 cells; assay: SRB assay, breast cancer cell line MDA-MB-231
Experimental: as §1

[13] = test system: A549 cells; assay: SRB assay, lung cancer cells A549
Experimental: as §1

[14] = Homo sapiens, KN510 100 μM, read-out: Inhibition rate of cancer cell growth (%) (Actual value)
[15] = Homo sapiens, KN510 200 μM, read-out: Inhibition rate of cancer cell growth (%) (Actual value)

GI50 ([7]; Homo sapiens, MIA PaCa-2, 48 hours, read-out: GI50 (Half maximal growth inhibition concentration)): 117 µM
SMILES: COc1ccc2[nH]c([S+]([O-])Cc3ncc(C)c(OC)c3C)nc2c1 (stereo not drawn) [KN510, omeprazole]
inhibition at 100 µM ([1]; Homo sapiens, U-251, KN510 100 μM, read-out: Inhibition rate of cancer cell growth (%) (Actual value)): 26.5% | inhibition at 200 µM ([1]; Homo sapiens, U-251, KN510 200 μM, read-out: Inhibition rate of cancer cell growth (%) (Actual value)): 44.9% | Cancer cell growth rate Average (%) ([1]; KN510 100 μM): 73.51% | Cancer cell growth rate Average (%) ([1]; KN510 200 μM): 55.11% | inhibition at 100 µM [2, 14]: 44.8% | inhibition at 200 µM [2, 15]: 73% | Cancer cell growth rate Average (%) ([2]; KN510 100 μM): 55.18% | Cancer cell growth rate Average (%) ([2]; KN510 200 μM): 27.01% | inhibition at 100 µM ([3]; Homo sapiens, SF-295, KN510 100 μM, read-out: Inhibition rate of cancer cell growth (%) (Actual value)): 32% | inhibition at 200 µM ([3]; Homo sapiens, SF-295, KN510 200 μM, read-out: Inhibition rate of cancer cell growth (%) (Actual value)): 63.5% | Cancer cell growth rate Average (%) ([3]; KN510 100 μM): 67.98% | Cancer cell growth rate Average (%) ([3]; KN510 200 μM): 36.53% | inhibition at 100 µM ([4]; Homo sapiens, Hep3B, KN510 100 μM, read-out: Inhibition rate of cancer cell growth (%) (Actual value)): 15.1% | inhibition at 200 µM ([4]; Homo sapiens, Hep3B, KN510 200 μM, read-out: Inhibition rate of cancer cell growth (%) (Actual value)): 40.1% | Cancer cell growth rate Average (%) ([4]; KN510 100 μM): 84.95% | Cancer cell growth rate Average (%) ([4]; KN510 200 μM): 59.89% | inhibition at 100 µM [5, 14]: 44.5% | inhibition at 200 µM [5, 15]: 63.3% | Cancer cell growth rate Average (%) ([5]; KN510 100 μM): 55.49% | Cancer cell growth rate Average (%) ([5]; KN510 200 μM): 36.66% | inhibition at 100 µM [6, 14]: 26.1% | inhibition at 200 µM [6, 15]: 63.2% | Cancer cell growth rate Average (%) ([6]; KN510 100 μM): 73.90% | Cancer cell growth rate Average (%) ([6]; KN510 200 μM): 36.78% | inhibition at 100 µM ([7]; Homo sapiens, MIA PaCa-2, MIA PaCa-2 (Example 11), KN510 100 μM, read-out: Inhibition rate of cancer cell growth (%) (Actual value)): 30.2% | inhibition at 200 µM ([7]; Homo sapiens, MIA PaCa-2, MIA PaCa-2 (Example 11), KN510 200 μM, read-out: Inhibition rate of cancer cell growth (%) (Actual value)): 78.2% | inhibition at 200 µM ([7]; Homo sapiens, MIA PaCa-2, MIA PaCa-2, Example 1-3, Table 4, KN510 200 μM, read-out: Inhibition rate of cancer cell growth (%) (Actual value)): 74.1% | Cancer cell growth rate Average (%) ([7]; MIA PaCa-2 (Example 11), KN510 100 μM): 69.78% | Cancer cell growth rate Average (%) ([7]; MIA PaCa-2 (Example 11), KN510 200 μM): 21.75% | Cancer cell growth rate Average (%) ([7]; MIA PaCa-2, Conc. 10^−3M, Table 1): −17.07% | Cancer cell growth rate Average (%) ([7]; MIA PaCa-2, Conc. 10^−4M, Table 1): 68.78% | Cancer cell growth rate Average (%) ([7]; MIA PaCa-2, Conc. 10^−5M, Table 1): 94.56% | Cancer cell growth rate Average (%) ([7]; MIA PaCa-2, Conc. 10^−6M, Table 1): 93.66% | Cancer cell growth rate Average (%) ([7]; MIA PaCa-2, Conc. 10^−7M, Table 1): 97.84% | Cancer cell growth rate Average (%) ([7]; MIA PaCa-2, Conc. 10^−8M, Table 1): 101.17% | Cancer cell growth rate Average (%) ([7]; MIA PaCa-2, Example 1-2, Table 2, KN510 200 μM): 25.89% | Cancer cell growth rate Average (%) ([7]; MIA PaCa-2, comparative example, Table 3, KN510 100 μM): 69.73% | Cancer cell growth rate Average (%) ([7]; MIA PaCa-2, comparative example, Table 3, KN510 200 μM): 35.32% | inhibition at 100 µM ([8]; Homo sapiens, NCI-H1975, KN510 100 μM, read-out: Inhibition rate of cancer cell growth (%) (Actual value)): 15.5% | inhibition at 200 µM ([8]; Homo sapiens, NCI-H1975, KN510 200 μM, read-out: Inhibition rate of cancer cell growth (%) (Actual value)): 56.8% | Cancer cell growth rate Average (%) ([8]; KN510 100 μM): 84.54% | Cancer cell growth rate Average (%) ([8]; KN510 200 μM): 43.18% | inhibition at 100 µM ([9]; Homo sapiens, SK-HEP1, KN510 100 μM, read-out: Inhibition rate of cancer cell growth (%) (Actual value)): 46.7% | inhibition at 200 µM ([9]; Homo sapiens, SK-HEP1, KN510 200 μM, read-out: Inhibition rate of cancer cell growth (%) (Actual value)): 62.8% | Cancer cell growth rate Average (%) ([9]; KN510 100 μM): 53.28% | Cancer cell growth rate Average (%) ([9]; KN510 200 μM): 37.19% | inhibition at 100 µM [10, 14]: 53.4% | inhibition at 200 µM [10, 15]: 96.4% | Cancer cell growth rate Average (%) ([10]; KN510 100 μM): 46.56% | Cancer cell growth rate Average (%) ([10]; KN510 200 μM): 3.59% | inhibition at 100 µM [11, 14]: 46.6% | inhibition at 200 µM [11, 15]: 66.2% | Cancer cell growth rate Average (%) ([11]; KN510 100 μM): 53.42% | Cancer cell growth rate Average (%) ([11]; KN510 200 μM): 33.81% | inhibition at 100 µM [12, 14]: 29.7% | inhibition at 200 µM [12, 15]: 71.9% | Cancer cell growth rate Average (%) ([12]; KN510 100 μM): 70.29% | Cancer cell growth rate Average (%) ([12]; KN510 200 μM): 28.13% | inhibition at 100 µM [13, 14]: 44.6% | inhibition at 200 µM [13, 15]: 69.7% | Cancer cell growth rate Average (%) ([13]; KN510 100 μM): 55.44% | Cancer cell growth rate Average (%) ([13]; KN510 200 μM): 30.29%
